Assay results taken from paper PMC8225008, “Development of Non-Ethoxypropanoic Acid Type Cryptochrome Inhibitors with Circadian Molecular Clock-Enhancing Activity by Bioisosteric Replacement” (Pharmaceuticals, 2021).

Legend:
Type in all cases: in vitro ADME
CYP1A2 = target: T1, CYP1A2 (Homo sapiens, UniProt P05177); assay: Cytochrome P450 inhibition assay (cocktail method, human liver microsomes), phenacetin O-deethylation
T1 construct: pooled human liver microsomes (HLMs, XTreme 200, XenoTech, Lenexa, KS, USA); tissue XenoTech XTreme 200; host or cells: pooled human liver microsomes
T1 sequence (P05177 1-516): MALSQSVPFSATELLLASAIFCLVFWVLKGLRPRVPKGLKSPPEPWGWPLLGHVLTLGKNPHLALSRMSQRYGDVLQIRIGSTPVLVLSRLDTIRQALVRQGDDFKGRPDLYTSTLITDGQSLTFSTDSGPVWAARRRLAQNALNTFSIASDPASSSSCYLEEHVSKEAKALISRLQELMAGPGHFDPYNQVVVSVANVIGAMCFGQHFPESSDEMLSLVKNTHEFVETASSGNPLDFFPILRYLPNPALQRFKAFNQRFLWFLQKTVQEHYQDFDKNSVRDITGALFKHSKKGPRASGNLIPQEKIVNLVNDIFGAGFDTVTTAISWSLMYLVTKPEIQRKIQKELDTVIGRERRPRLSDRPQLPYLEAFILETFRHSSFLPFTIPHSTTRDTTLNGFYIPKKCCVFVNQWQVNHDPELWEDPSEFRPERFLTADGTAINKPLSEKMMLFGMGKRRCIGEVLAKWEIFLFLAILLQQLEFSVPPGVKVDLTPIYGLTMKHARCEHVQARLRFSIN
Experimental: (§1) The inhibitory effects of KS15 and compound 5d on the metabolism of five cytochrome P450 (P450) probe substrates were evaluated using previous methods with slight modifications. The following P450 probe substrates were used: phenacetin (100 μM) for CYP1A2, tolbutamide (100 μM) for CYP2C9, omeprazole (20 μM) for CYP2C19, dextromethorphan (5 μM) for CYP2D6, and midazolam (5 μM) for CYP3A. Incubation mixtures containing pooled human liver microsomes (HLMs, XTreme 200, XenoTech, Lenexa, KS, USA), P450 probe substrates, and KS15 or compound 5d (final concentrations: 0, 0.5, 2, 5, 20, and 50 μM) were preincubated for 5 min at 37 °C. […] After centrifugation at 18,000× g (5 min, 4 °C), supernatant aliquots were analyzed by liquid chromatography-tandem mass spectrometry (LC-MS/MS). […]
(§2) All metabolites and IS were separated on a Kinetex C18 column (100 mm × 2.1 mm, 2.6 μm ID., Phenomenex, Torrance, CA, USA) and analyzed using an LC-MS/MS system (LCMS 8060, Shimadzu, Tokyo, Japan) equipped with an electrospray ionization (ESI) interface. […]
(§3) The EC50 values for luciferase reporter assay were calculated based on a logistic four-parametric equation using the mean values of intrinsic activation (SigmaPlot 10.0; Systat Software Inc., San Jose, CA, USA). […] Pharmacokinetic parameters were calculated using non-compartmental analysis (WinNonlin v.8.3; Pharsight, Mountain View, CA, USA). […]

CYP2C9 = target: T2, CYP2C9 (Homo sapiens, UniProt P11712); assay: Cytochrome P450 inhibition assay (cocktail method, human liver microsomes), tolbutamide 4-methylhydroxylation
T2 construct: pooled human liver microsomes (HLMs, XTreme 200, XenoTech, Lenexa, KS, USA); tissue XenoTech XTreme 200; host or cells: pooled human liver microsomes
Experimental: as §1, §2, §3

CYP2C19 = target: T3, CYP2C19 (Homo sapiens, UniProt P33261); assay: Cytochrome P450 inhibition assay (cocktail method, human liver microsomes), omeprazole hydroxylation
T3 construct: pooled human liver microsomes (HLMs, XTreme 200, XenoTech, Lenexa, KS, USA); tissue XenoTech XTreme 200; host or cells: pooled human liver microsomes
Experimental: as §1, §2, §3

Measured: IC50

T2 sequence (P11712 whole entry): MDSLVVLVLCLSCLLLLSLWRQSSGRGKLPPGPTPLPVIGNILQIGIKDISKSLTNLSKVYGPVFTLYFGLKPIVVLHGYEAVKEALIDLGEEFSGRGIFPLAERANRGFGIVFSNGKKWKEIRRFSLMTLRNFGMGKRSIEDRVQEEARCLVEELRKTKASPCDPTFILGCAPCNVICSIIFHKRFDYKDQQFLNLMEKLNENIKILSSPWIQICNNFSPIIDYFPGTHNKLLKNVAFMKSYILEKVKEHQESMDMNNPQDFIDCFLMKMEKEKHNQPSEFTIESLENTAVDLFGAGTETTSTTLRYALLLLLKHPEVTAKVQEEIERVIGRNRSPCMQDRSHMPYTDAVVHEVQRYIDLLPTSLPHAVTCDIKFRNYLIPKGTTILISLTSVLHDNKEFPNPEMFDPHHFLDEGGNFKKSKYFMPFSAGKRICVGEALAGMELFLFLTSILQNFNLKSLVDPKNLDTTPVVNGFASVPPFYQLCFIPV
T3 sequence (P33261 whole entry): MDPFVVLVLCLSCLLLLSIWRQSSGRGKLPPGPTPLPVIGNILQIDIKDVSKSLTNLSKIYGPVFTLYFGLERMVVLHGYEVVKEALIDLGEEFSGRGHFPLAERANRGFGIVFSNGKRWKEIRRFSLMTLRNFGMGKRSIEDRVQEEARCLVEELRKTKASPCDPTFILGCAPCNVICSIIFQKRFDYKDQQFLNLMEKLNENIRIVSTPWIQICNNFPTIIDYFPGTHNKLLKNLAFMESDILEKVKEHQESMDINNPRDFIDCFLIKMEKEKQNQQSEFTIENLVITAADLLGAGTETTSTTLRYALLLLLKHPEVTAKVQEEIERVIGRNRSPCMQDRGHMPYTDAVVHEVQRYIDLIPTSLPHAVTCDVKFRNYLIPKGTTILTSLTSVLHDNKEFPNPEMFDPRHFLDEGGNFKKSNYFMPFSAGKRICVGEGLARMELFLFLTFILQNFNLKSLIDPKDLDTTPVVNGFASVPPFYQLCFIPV

COC(=O)COc1cccc(C(C)=NOCc2ccc([N+](=O)[O-])cc2)c1 [Compound 5d, Methyl 2-(3-(1-(((4-nitrobenzyl)oxy)imino)ethyl)phenoxy)acetate]
> 50 µM: all assays above
